Values after ≈ are worked out from the molar mass of the structure shown. Like-named read-outs stand apart in the source and are kept apart here.
Key:
Bacillus cereus = assay: microbe, parasite or virus in culture; format: cell-based; conditions: for MIC: Bacillus cereus, per-compound listing, Example 6, read-out: MIC B. cereus; for MIC B. cereus, G+ (anthrax surrogate): Table 3
[1] = test system: Enterococcus faecium VRE 1; assay: organism not typed; format: cell-based; conditions: for MIC E. faecium VRE 1, G+: Table 3; for MIC: read-out: MIC VRE
[2] = test system: Staphylococcus aureus ATCC 29213; assay: microbe, parasite or virus in culture; format: cell-based; conditions: Staphylococcus aureus, ATCC29213; per-compound listing, Example 6; read-out: MIC S. aureus
Streptococcus pyogenes = assay: microbe, parasite or virus in culture; format: cell-based; conditions: for MIC: Streptococcus pyogenes, per-compound listing, Example 6, read-out: MIC S. pyogenes; for MIC S. pyogenes, G+: Table 3
C. elegans = assay: motility assay; format: in vivo; set-up: key to Movement score, 1/1600 / Movement score, 1/800 / Movement score, 1/400 / Movement score, 1/200 / Movement score, 1/100: normal (−); slow (+); very slow (++); not motile/paralyzed (+++); conditions: for Movement score, 1/100: dilution 1/100 of stock (10.24 μg/μL; SK-03-92 1.024 μg/μL); for Movement score, 1/100 / Movement score, 1/200 / Movement score, 1/400 / Movement score, 1/800 / Movement score, 1/1600: Ive 1 ng/μL in all wells; for Movement score, 1/200: dilution 1/200 of stock (10.24 μg/μL; SK-03-92 1.024 μg/μL); for Movement score, 1/400: dilution 1/400 of stock (10.24 μg/μL; SK-03-92 1.024 μg/μL); for Movement score, 1/800: dilution 1/800 of stock (10.24 μg/μL; SK-03-92 1.024 μg/μL); for Movement score, 1/1600: dilution 1/1600 of stock (10.24 μg/μL; SK-03-92 1.024 μg/μL), overnight 20° C.; for effect on worms at the lowest concentrations tested: at least triplicate
[3] = test system: Staphylococcus aureus MRSA MC-1; assay: microbe, parasite or virus in culture; format: cell-based; conditions: Staphylococcus aureus, MRSA, read-out: MIC MRSA
M. smegmatis = assay: MIC assay; format: cell-based; conditions: Mycolicibacterium smegmatis, read-out: MIC M. smegmatis
C. elegans L1 larvae = assay: developmental assay; format: in vivo; set-up: key to Developmental score, 1/1600 / Developmental score, 1/800 / Developmental score, 1/400 / Developmental score, 1/200 / Developmental score, 1/100: dead (+++); distressed (++); slightly delayed (+); the same as M9-only untreated wells (−); conditions: for Developmental score, 1/100: dilution 1/100; for Developmental score, 1/100 / Developmental score, 1/200 / Developmental score, 1/400 / Developmental score, 1/800 / Developmental score, 1/1600: after four days, Ive 1 ng/μL in each well; for Developmental score, 1/200: dilution 1/200; for Developmental score, 1/400: dilution 1/400; for Developmental score, 1/800: dilution 1/800; for Developmental score, 1/1600: dilution 1/1600
[4] = per-compound listing, Example 6

Row | Compound | MIC (Bacillus cereus) | MIC B. cereus, G+ (anthrax surrogate) (Bacillus cereus) | MIC E. faecium VRE 1, G+ [1] | MIC [1] | MIC [2] | MIC (Streptococcus pyogenes) | MIC S. pyogenes, G+ (Streptococcus pyogenes) | Movement score, 1/100 (C. elegans) | Movement score, 1/200 (C. elegans) | Movement score, 1/400 (C. elegans) | Movement score, 1/800 (C. elegans) | Movement score, 1/1600 (C. elegans) | MIC [3] | MIC (M. smegmatis; [4]) | Developmental score, 1/100 (C. elegans L1 larvae) | Developmental score, 1/200 (C. elegans L1 larvae) | Developmental score, 1/400 (C. elegans L1 larvae) | Developmental score, 1/800 (C. elegans L1 larvae) | Developmental score, 1/1600 (C. elegans L1 larvae) | other results
1 | COc1cc(O)cc(/C=C/Oc2ccc(C)cc2)c1 [Compound A10, 4-Methylphenyl-E-(3-hydroxy-5-methoxy)-styryl ether] | 64 µg/mL (≈ 250 µM) | 64 µg/mL (≈ 250 µM) | 32 µg/mL (≈ 125 µM) | 32 µg/mL (≈ 125 µM) | 16 µg/mL (≈ 62.4 µM) | 32 µg/mL (≈ 125 µM) | 32 µg/mL (≈ 125 µM) | +++ | +++ | +++ | ++ | + | 32 µg/mL (≈ 125 µM) | > 128 µg/mL | +++ | +++ | ++ | − | − | effect on worms at the lowest concentrations tested (C. elegans): reduced motility, paralysis, or death
2 | COc1cc(O)cc(/C=C/c2cccs2)c1 [CL-6, (E)-2-[2-(3-Hydroxy-5-methoxy)-vinyl]thiophene] | 32 µg/mL (≈ 138 µM) | 32 µg/mL (≈ 138 µM) | 64 µg/mL (≈ 276 µM) | 64 µg/mL (≈ 276 µM) | 32 µg/mL (≈ 138 µM) | 32 µg/mL (≈ 138 µM) | 32 µg/mL (≈ 138 µM) | +++ | +++ | +++ | − | − | 32 µg/mL (≈ 138 µM) | 64 µg/mL (≈ 276 µM) |  |  |  |  |  | 
3 | COc1cc(O)cc(/C=C/Oc2cccc(OC)c2)c1 [Compound A8, 3-Methoxyphenyl-E-(3-hydroxy-5-methoxy)-styryl ether] | 64 µg/mL (≈ 235 µM) | 64 µg/mL (≈ 235 µM) | 64 µg/mL (≈ 235 µM) | 64 µg/mL (≈ 235 µM) | 32 µg/mL (≈ 118 µM) | 16 µg/mL (≈ 58.8 µM) | 16 µg/mL (≈ 58.8 µM) | +++ | ++ | ++ | + | + | 64 µg/mL (≈ 235 µM) | 128 µg/mL (≈ 470 µM) | +++ | +++ | − | − | − | 
4 | COc1cc(O)cc(/C=C/Sc2ccc(C(C)(C)C)cc2)c1 [SK-05-04] | 8 µg/mL (≈ 25.4 µM) |  |  |  | 16 µg/mL (≈ 50.9 µM) |  |  |  |  |  |  |  |  | 128 µg/mL (≈ 407 µM) |  |  |  |  |  | 
5 | Oc1cc(O)cc(/C=C/c2ccc3ccccc3c2)c1 [SK-03-28F3] | 8 µg/mL (≈ 30.5 µM) |  |  |  | 8 µg/mL (≈ 30.5 µM) |  |  |  |  |  |  |  | 256 µg/mL (≈ 976 µM) | > 512 µg/mL |  |  |  |  |  | 
6 | COc1cc(O)cc(O/C=C/c2ccccc2)c1 [CL-2, Phenyl-E-(3-hydroxy-5methoxy)-styryl ether] | 64 µg/mL (≈ 264 µM) | 64 µg/mL (≈ 264 µM) | 32 µg/mL (≈ 132 µM) | 32 µg/mL (≈ 132 µM) | 32 µg/mL (≈ 132 µM) | 16 µg/mL (≈ 66 µM) | 16 µg/mL (≈ 66 µM) | +++ | +++ | +++ | − | − | 32 µg/mL (≈ 132 µM) | 128 µg/mL (≈ 528 µM) |  |  |  |  |  | 
7 | COc1cc(O)cc(/C=C/Sc2ccccc2C(C)C)c1 [SK-05-01] | 16 µg/mL (≈ 53.3 µM) |  |  |  | 16 µg/mL (≈ 53.3 µM) |  |  | + | − | − | − | − |  | 256 µg/mL (≈ 852 µM) |  |  |  |  |  | 
8 | COc1cc(O)cc(/C=C/Sc2cccc3ccccc23)c1 [SK-05-16] | 4 µg/mL (≈ 13 µM) |  |  |  | 4 µg/mL (≈ 13 µM) |  |  | ++ | ++ | ++ | + | − |  | 128 µg/mL (≈ 415 µM) | ++ | − | − | − | − | 
9 | ivermectin [reference compound] |  |  |  |  |  |  |  | +++ | +++ | +++ | +++ | +++ |  |  | +++ | +++ | +++ | ++ | ++ | animals affected (C. elegans; 0.25 ng/μL, overnight): Over 40%; animals paralyzed (C. elegans; 0.5 ng/μL): more than 90%; paralysis (C. elegans; 0.5 ng/μl, FIG. 9): Most worms were paralyzed; paralysis (C. elegans; 1 ng/μL): All worms were paralyzed; lowest effective concentration (C. elegans; molar equivalent of 0.25 ng/μL): ~140 nM; lowest effective concentration (C. elegans; overnight, soaking, mixed population): 0.25 ng/µL
10 | COc1cc(O)cc(/C=C/Oc2ccccc2C)c1 [Compound A11, 2-Methylphenyl-E-(3-hydroxy-5-methoxy)-styryl ether] | 32 µg/mL (≈ 125 µM) | 64 µg/mL (≈ 250 µM) | 32 µg/mL (≈ 125 µM) | 32 µg/mL (≈ 125 µM) | 16 µg/mL (≈ 62.4 µM) | 32 µg/mL (≈ 125 µM) | 32 µg/mL (≈ 125 µM) |  |  |  |  |  | 32 µg/mL (≈ 125 µM) | > 128 µg/mL |  |  |  |  |  | 
11 | COc1cc(O)cc(/C=C/SC2CCCCC2)c1 [SK-04-50] |  |  |  |  |  |  |  | ++ | + | + | + | + |  |  | +++ | + | − | − | − | 
12 | CCC(C)CS/C=C/c1cc(O)cc(OC)c1 (stereo not shown) [SK-05-22] | 16 µg/mL (≈ 63.4 µM) |  |  |  | 16 µg/mL (≈ 63.4 µM) |  |  | +++ | +++ | ++ | + | − |  | 128 µg/mL (≈ 507 µM) | +++ | +++ | +++ | + | − | effect at the two highest dilutions (C. elegans L1 larvae): death or delays in development
13 | COc1cc(O)cc(/C=C/Sc2ccc3ccccc3c2)c1 [SK-05-17] | 4 µg/mL (≈ 13 µM) |  |  |  | 4 µg/mL (≈ 13 µM) |  |  | ++ | ++ | ++ | ++ | ++ |  | 128 µg/mL (≈ 415 µM) | +++ | ++ | ++ | − | − | effect on worms at the lowest concentration tested (most active) (C. elegans; lowest concentration tested): severe distress; effect on worms at the lowest concentrations tested (C. elegans): reduced motility, paralysis, or death
14 | COc1cc(O)cc(/C=C/Oc2ccccc2)c1 [CL-1, Phenyl-E-(3-hydroxy-5-methoxy)-styryl ether] | 32 µg/mL (≈ 132 µM) | 16 µg/mL (≈ 66 µM) | 64 µg/mL (≈ 264 µM) | 64 µg/mL (≈ 264 µM) | 32 µg/mL (≈ 132 µM) | 32 µg/mL (≈ 132 µM) | 32 µg/mL (≈ 132 µM) | +++ | +++ | − | − | − | 64 µg/mL (≈ 264 µM) | 128 µg/mL (≈ 528 µM) |  |  |  |  |  | 
15 | CCOC(=O)/C=C\Sc1nc2ccccc2s1 [SK-04-59F1] |  |  |  |  |  |  |  | − | − | − | − | − |  |  |  |  |  |  |  | 
16 | Oc1cc(O)cc(/C=C/c2csc3ccccc23)c1 [SK-03-44F2] | 256 µg/mL (≈ 954 µM) |  |  |  | 32 µg/mL (≈ 119 µM) |  |  |  |  |  |  |  | > 512 µg/mL |  |  |  |  |  |  | MIC (M. smegmatis): > 512 µg/mL
17 | COc1cc(O)cc(/C=C/c2ccc3ccccc3c2)c1 [SK-03-28F2] | 16 µg/mL (≈ 57.9 µM) |  |  |  | 8 µg/mL (≈ 29 µM) |  |  | +++ | +++ | ++ | ++ | − |  | 256 µg/mL (≈ 926 µM) | +++ | +++ | − | − | − | effect on worms at the lowest concentrations tested (C. elegans): reduced motility, paralysis, or death
